Measured values reported in patent US4808584A, “Quinolinecarboxylic acid derivatives and antibacterial agent containing the same” (Kanebo, Ltd., priority 1987, dated 1989).
≈ marks a conversion by molar mass, not a printed value. Where a name gives a salt, the structure may show the parent alone.

Tests used:
ddY male mice = test: Acute toxicity (LD50); type: in vivo; settings: oral, ddY male mice fasted for 18 hours, Weil method
Description: The compound (B) of the present invention was dissolved in sterilized distilled water and the solution was orally administered to ddY male mice (5 weeks age, weighing 20 to 25 g, 5 mice in each group), which had been fasted for 18 hours.

[1] = system: Pseudomonas aeruginosa E-2; test: Effect on treatment of general infectious disease; type: in vivo, ddY male mice; settings: E2, 168 h, P. aeruginosa E-2, 1.6×10^4 CFU/mouse i.p., oral one hour after infection, survival after one week
Description: Pseudomonas aeruginosa E-2 (1.6×10^4 CFU/mouse)
(§1) The test microorganisms were subjected to standing culture in Trypto-Soya Agar "Nissui" (made by Nissui Seiyaku K.K., Japan) at 37° C. for 16 to 18 hours. The culture was then diluted with PBS (Dulbecco's phosphate buffered saline) and mixed with an equivalent amount of 10% (w/v) Mucin (BACTO MUCIN BACTERIOLOGICAL, made by Difco Co.) to prepare a microorganism solution. The thus prepared microorganism solution (0.5 ml each) was intraperitoneally innoculated to ddY male mice (4 weeks age, weighing 20-22 g, 5 mice in each group), to infect the animals. One hour after the infection, the compound (B) of the present invention dissolved in sterilized distilled water or ofloxacin suspended in 0.5% (w/v) aqueous sodium carboxymethyl cellulose solution was orally adiministered to mice.
(§2) The mice were daily observed for one week, and from the survival number of mice after one week, the 50% effective dose (ED50) was calculated by Weil method.

E. coli KC-14 = test: Effect on treatment of infectiousness of the genito-urinary tract; type: in vivo, ICR female mice; settings: Escherichia coli, KC14, 48 h; E. coli KC-14, 5.6×10^5 CFU/mouse into urinary bladder; oral; not more than 10^4 living bacteria/1 g of kidney regarded as effective
Description: 2. Test microorganism and inoculum size E. coli KC-14 (5.6×10^5 CFU/mouse) 3. Method:
A microorganism solution (0.1 ml) prepared in the same manner as described in Experiment 3 was introduced into urinary bladder through urinary tract of ICR female mice (5 weeks age, weighing 20 to 22 g, 5 mice in each group), and then urinary meatus was clasped with clip for 4 hours to infect the animals. After taking off the clip, the compound (B) of the present invention dissolved in sterilized distilled water or ofloxacin suspended in 0.5% aqueous sodium carboxymethyl cellulose solution was orally administered to mice. Two days after the infection, mice kidneys were taken out and weighed, to which PBS (Dulbecco's phosphate buffered saline) was added and the mixture was homogenized. The homogenate was then diluted with PBS and inoculated onto a plate of modified Drigalski Agar (BTB lactose agar "Nissui", made by Nissui Seiyaku K.K., Japan) and cultured at 37° C. for 18 hours. The number of the colonies of infectious bacteria grown on the plate was counted. The number of living bacteria per 1 g of kidney was calculated from the number of colonies and the kidney weight. The living bacteria number/1 g of kidney of not more than 10^4 was regarded as effective and an effective dose for 50% mice (ED50) was calculated by Weil method.

Escherichia coli KC-14 [2] = test: Effect on treatment of general infectious disease; type: in vivo, ddY male mice; settings: KC14, 168 h, E. coli KC-14, 1.2×10^4 CFU/mouse i.p., oral one hour after infection, survival after one week
Description: Escherichia coli KC-14 (1.2×10^4 CFU/mouse)
as §1, §2

[3] = system: Pseudomonas aeruginosa IFO 3445; test: Minimum inhibitory concentration (MIC); type: cell-based
Description: (§3) The compounds of the present invention (A, C, E, F, G, H and I) and ofloxacin as control were dissolved in 0.1N aqueous potassium hydroxide to prepare a solution of 5000 μg/ml in concentration. The compounds of the present invention (B, D and J) were dissolved in sterilized distilled water to prepare a solution of 5000 μg/ml in concentration. Each solution was diluted with sterilized distilled water to prepare a standard solution with a concentration of each test compound: 1000 μg/ml. The test was carried out by a method approved by Japan Society of Chemotherapy [cf. Chemotherapy, 29, 76-79 (1981)(TOKYO)].

[4] = system: Klebsiella pneumoniae PCI 602; test: Minimum inhibitory concentration (MIC); type: cell-based; settings: Klebsiella pneumoniae, PCI602, Klebsiella pneumoniae PCI 602, Gram -; read-out: Minimum inhibitory concentration (MIC)
Description: as §3

[5] = system: Streptococcus faecalis IID 682; test: Minimum inhibitory concentration (MIC); type: cell-based
Description: as §3

[6] = system: Serratia marcescens IAM 1184; test: Minimum inhibitory concentration (MIC); type: cell-based
Description: as §3

[7] = system: Staphylococcus aureus IID 803; test: Effect on treatment of general infectious disease; type: in vivo, ddY male mice; settings: IID803, 168 h, S. aureus IID 803, 1.0×10^6 CFU/mouse i.p., oral one hour after infection, survival after one week
Description: Staphylococcus aureus IID 803 (1.0×10^6 CFU/mouse)
as §1, §2

[8] = system: methicillin resistant Staphylococcus aureus; test: Minimum inhibitory concentration against clinically isolated methicillin resistant Staphylococcus aureus; type: cell-based
Description: The compound (B) was dissolved in sterilized distilled water, and ofloxacin in 0.1N aqueous potassium hydroxide, to prepare a solution of 5000 μg/ml in concentration each. The above solutions were then diluted with sterilized distilled water to prepare a standard solution with a concentration of the test compound: 1000 μg/ml each. The test was carried out by a method approved by Japan Society of Chemotherapy (ibidem) to measure minimum inhibitory concentration (MIC) against 54 strains of clinically isolated methicillin resistant Staphylococcus aureus, from which there were calculated a range of MIC (MICrange) of the test compound against these resistant strains, a minimum concentration for inhibiting the growth of the strains by 50% (MIC50) and a minimum concentration for inhibiting the growth of the strains by 90% (MIC90).

[9] = system: Bacillus subtilis ATCC 6633; test: Minimum inhibitory concentration (MIC); type: cell-based; settings: ATCC6633; Bacillus subtilis ATCC 6633, Gram +; read-out: Minimum inhibitory concentration (MIC)
Description: as §3

[10] = system: Citrobacter freundii NIHJ 10018-68; test: Minimum inhibitory concentration (MIC); type: cell-based; settings: NIHJ10018; Citrobacter freundii NIHJ 10018-68, Gram -
Description: as §3

[11] = system: Morganella morganii IFO 3848; test: Minimum inhibitory concentration (MIC); type: cell-based; settings: IFO3848; Morganella morganii IFO 3848, Gram -
Description: as §3

[12] = system: Escherichia coli NIHJ JC-2; test: Minimum inhibitory concentration (MIC); type: cell-based; settings: NIHJJC2; Escherichia coli NIHJ JC-2, Gram -
Description: as §3

[13] = system: Micrococcus luteus ATCC 9341; test: Minimum inhibitory concentration (MIC); type: cell-based; settings: ATCC9341; Micrococcus luteus ATCC 9341, Gram +
Description: as §3

[14] = system: Staphylococcus aureus FDA 209P JC-1; test: Minimum inhibitory concentration (MIC); type: cell-based; settings: FDA209P; Staphylococcus aureus FDA 209P JC-1, Gram +
Description: as §3

[15] = system: Acinetobacter calcoaceticus AC 54; test: Minimum inhibitory concentration (MIC); type: cell-based; settings: Acinetobacter calcoaceticus, AC54, Acinetobacter calcoaceticus AC 54, Gram -
Description: as §3

[16] = system: Pseudomonas aeruginosa E-2; test: Minimum inhibitory concentration (MIC); type: cell-based; settings: E2; Pseudomonas aeruginosa E-2, Gram -
Description: as §3

[17] = system: Pseudomonas aeruginosa NCTC 10490; test: Minimum inhibitory concentration (MIC); type: cell-based; settings: Pseudomonas aeruginosa, NCTC10490, Pseudomonas aeruginosa NCTC 10490, Gram -
Description: as §3

[18] = system: Enterobacter aerogenes ATCC 13048; test: Minimum inhibitory concentration (MIC); type: cell-based; settings: Klebsiella aerogenes, ATCC13048, Enterobacter aerogenes ATCC 13048, Gram -
Description: as §3

Proteus vulgaris OX-19 = test: Minimum inhibitory concentration (MIC); type: cell-based; settings: OX19; Proteus vulgaris OX-19, Gram -; read-out: Minimum inhibitory concentration (MIC)
Description: as §3

[19] = system: Salmonella typhimurium IID 971; test: Minimum inhibitory concentration (MIC); type: cell-based; settings: Salmonella enterica, Salmonella typhimurium IID 971, Gram -; read-out: Minimum inhibitory concentration (MIC)
Description: as §3

[20] = system: Staphylococcus aureus IID 803; test: Minimum inhibitory concentration (MIC); type: cell-based; settings: Staphylococcus aureus, IID803, read-out: Minimum inhibitory concentration (MIC)
Description: as §3

[21] = system: Staphylococcus epidermidis IAM-1296; test: Minimum inhibitory concentration (MIC); type: cell-based; settings: Staphylococcus epidermidis, IAM1296, Staphylococcus epidermidis IAM-1296, Gram +
Description: as §3

Shigella sonnei EW-33 = test: Minimum inhibitory concentration (MIC); type: cell-based; settings: EW33; Shigella sonnei EW-33, Gram -
Description: as §3

Enterobacter cloacae 963 = test: Minimum inhibitory concentration (MIC); type: cell-based; settings: Enterobacter cloacae 963, Gram -
Description: as §3

Escherichia coli KC-14 [22] = test: Minimum inhibitory concentration (MIC); type: cell-based; settings: KC14; Escherichia coli KC-14, Gram -
Description: as §3

[23] = system: Proteus mirabilis IFO 3849; test: Minimum inhibitory concentration (MIC); type: cell-based; settings: IFO3849; Proteus mirabilis IFO 3849, Gram -
Description: as §3

Compound CN1CCN(c2c(F)cc3c(=O)c(C(=O)O)c4scc5n4c3c2OC5)CC1 [Compound (B), 9,1-Epoxymethano-7-fluoro-8-(4-methyl-1-piperazinyl)-5-oxo-5H-thiazolo[3,2-a]quinoline-4-carboxylic acid.hydrochloride] has an LD50 (ddY male mice) of 1231 mg/kg, an ED50 [1] of 17.7 mg/kg and an ED50 (E. coli KC-14) of 21.7 mg/kg. For the same compound, the ED50 (Escherichia coli KC-14 [2]) was 1 mg/kg, the “Minimum inhibitory concentration (MIC)” value ([3]; Pseudomonas aeruginosa IFO 3445, Gram -) was 1.56 mg/L and the MIC [4] was 0.025 mg/L. For the same compound, the “Minimum inhibitory concentration (MIC)” value ([5]; Streptococcus faecalis IID 682, Gram +) was 0.78 mg/L, the “Minimum inhibitory concentration (MIC)” value ([6]; Serratia marcescens IAM 1184, Gram -) was 0.39 mg/L and the ED50 [7] was 8.1 mg/kg. The MIC ([8]; 54 strains of clinically isolated methicillin resistant Staphylococcus aureus) was 0.1 to 0.39 mg/L, the MIC50 ([8]; Staphylococcus aureus, minimum concentration for inhibiting the growth of the strains by 50%, 54 strains) was 0.2 mg/L and the MIC90 ([8]; Staphylococcus aureus, minimum concentration for inhibiting the growth of the strains by 90%, 54 strains) was 0.2 mg/L.

O=C(O)c1c(=O)c2cc(F)c(N3CCCC3)c3c2n2c(csc12)CO3 [Compound (G), 9,1-Epoxymethano-7-fluoro-8-(1-pyrrolidinyl)-5-oxo-5H-thiazolo[3,2-a]quinoline-4-carboxylic acid] gave an MIC ([3]; Pseudomonas aeruginosa, IFO3445, Pseudomonas aeruginosa IFO 3445, Gram -) of 1.56 mg/L (≈ 4.33 µM), an MIC [9] of 0.025 mg/L (≈ 0.0694 µM) and an MIC [10] of 3.13 mg/L (≈ 8.69 µM). For the same compound, the MIC [11] was 0.2 mg/L (≈ 0.555 µM), the MIC [12] was 0.2 mg/L (≈ 0.555 µM) and the MIC [13] was 3.13 mg/L. The MIC [14] was 0.025 mg/L, the MIC [15] was 0.2 mg/L (≈ 0.555 µM) and the MIC [4] was 0.1 mg/L (≈ 0.277 µM). For the same compound, the MIC [16] was 1.56 mg/L (≈ 4.33 µM), the MIC ([5]; Enterococcus faecalis, IID682, Streptococcus faecalis IID 682, Gram +) was 0.2 mg/L and the MIC [17] was 0.78 mg/L (≈ 2.16 µM). For the same compound, the MIC [18] was 0.1 mg/L (≈ 0.277 µM), the MIC (Proteus vulgaris OX-19) was 0.1 mg/L (≈ 0.277 µM) and the MIC [19] was 0.1 mg/L (≈ 0.277 µM). For the same compound, the MIC [20] was 0.05 mg/L (≈ 0.139 µM), the MIC [21] was 0.05 mg/L and the MIC (Shigella sonnei EW-33) was 0.1 mg/L (≈ 0.277 µM). For the same compound, the MIC (Enterobacter cloacae 963) was 0.39 mg/L (≈ 1.08 µM), the MIC (Escherichia coli KC-14 [22]) was 0.2 mg/L (≈ 0.555 µM) and the MIC [23] was 0.39 mg/L (≈ 1.08 µM). It also gave an MIC ([6]; Serratia marcescens, IAM1184, Serratia marcescens IAM 1184, Gram -) of 1.56 mg/L (≈ 4.33 µM).
